Assay results from patent publication US9693556B2, “Herbicidal pyridazinone derivatives” (SYNGENTA LIMITED, priority 2011, dated 2017).

Key:
Type in all cases: in vivo
[1] = tested on: Alopecurus myosuroides (ALOMY); experiment: Pre-emergence herbicidal glasshouse test on Alopecurus myosuroides; details: pre-emergence; 1000 g/h; evaluated after 13 days
Summary of the method: (§1)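 Herbicidal damage was rated 13 days after treatment on a five-point scale, where 5 denotes 80-100% and 1 denotes 0-19% damage. Spraying at 1000 g/h followed sowing by one day (pre-emergence) or eight days (post-emergence).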

Setaria faberi (SETFA) [2] = experiment: Pre-emergence herbicidal glasshouse test on Setaria faberi; details: pre-emergence; 1000 g/h; evaluated after 13 days
Summary of the method: as §1

[3] = tested on: Echinochloa crus-galli (ECHCG); experiment: Pre-emergence herbicidal glasshouse test on Echinochloa crus-galli; details: pre-emergence; 1000 g/h; evaluated after 13 days
Summary of the method: as §1

Solanum nigrum (SOLNI) [4] = experiment: Pre-emergence herbicidal glasshouse test on Solanum nigrum; details: pre-emergence; 1000 g/h; evaluated after 13 days
Summary of the method: as §1

[5] = tested on: Amaranthus retoflexus (AMARE); experiment: Pre-emergence herbicidal glasshouse test on Amaranthus retoflexus; details: pre-emergence; 1000 g/h; evaluated after 13 days
Summary of the method: as §1

[6] = tested on: Ipomoea hederacea (IPOHE); experiment: Pre-emergence herbicidal glasshouse test on Ipomoea hederacea; details: pre-emergence; 1000 g/h; evaluated after 13 days
Summary of the method: as §1

[7] = tested on: Alopecurus myosuroides (ALOMY); experiment: Post-emergence herbicidal glasshouse test on Alopecurus myosuroides; details: post-emergence; 1000 g/h; evaluated after 13 days
Summary of the method: as §1

Setaria faberi (SETFA) [8] = experiment: Post-emergence herbicidal glasshouse test on Setaria faberi; details: post-emergence; 1000 g/h; evaluated after 13 days
Summary of the method: as §1

[9] = tested on: Echinochloa crus-galli (ECHCG); experiment: Post-emergence herbicidal glasshouse test on Echinochloa crus-galli; details: post-emergence; 1000 g/h; evaluated after 13 days
Summary of the method: as §1

Solanum nigrum (SOLNI) [10] = experiment: Post-emergence herbicidal glasshouse test on Solanum nigrum; details: post-emergence; 1000 g/h; evaluated after 13 days
Summary of the method: as §1

[11] = tested on: Amaranthus retoflexus (AMARE); experiment: Post-emergence herbicidal glasshouse test on Amaranthus retoflexus; details: post-emergence; 1000 g/h; evaluated after 13 days
Summary of the method: as §1

[12] = tested on: Ipomoea hederacea (IPOHE); experiment: Post-emergence herbicidal glasshouse test on Ipomoea hederacea; details: post-emergence; 1000 g/h; evaluated after 13 days
Summary of the method: as §1

| SMILES | PRE Application ALOMY herbicidal damage (five point scale) [1] | PRE Application SETFA herbicidal damage (five point scale) (Setaria faberi (SETFA) [2]) | PRE Application ECHCG herbicidal damage (five point scale) [3] | PRE Application SOLNI herbicidal damage (five point scale) (Solanum nigrum (SOLNI) [4]) | PRE Application AMARE herbicidal damage (five point scale) [5] | PRE Application IPOHE herbicidal damage (five point scale) [6] | POST Application ALOMY herbicidal damage (five point scale) [7] | POST Application SETFA herbicidal damage (five point scale) (Setaria faberi (SETFA) [8]) | POST Application ECHCG herbicidal damage (five point scale) [9] | POST Application SOLNI herbicidal damage (five point scale) (Solanum nigrum (SOLNI) [10]) | POST Application AMARE herbicidal damage (five point scale) [11] | POST Application IPOHE herbicidal damage (five point scale) [12] |
| --- | --- | --- | --- | --- | --- | --- | --- | --- | --- | --- | --- | --- |
| Cc1c(-c2cnn(C(F)F)c(=O)c2O)ccc(S(C)(=O)=O)c1C1=NOCC1 [Compound 1.005] | 1 (1=0-19% damage) | 5 (5=80-100% damage) | 5 (5=80-100% damage) | 3 (3=40-59% damage) | 5 (5=80-100% damage) | 1 (1=0-19% damage) | 4 (4=60-79% damage) | 5 (5=80-100% damage) | 5 (5=80-100% damage) | 5 (5=80-100% damage) | 5 (5=80-100% damage) | 5 (5=80-100% damage) |
| Cc1c(Cl)cccc1-c1c(C(F)(F)F)ccn(-c2cnn(C)c(=O)c2O)c1=O [Compound 7.030] | 5 (5=80-100% damage) | 4 (4=60-79% damage) | 5 (5=80-100% damage) | 5 (5=80-100% damage) | 5 (5=80-100% damage) | 4 (4=60-79% damage) | 5 (5=80-100% damage) | 5 (5=80-100% damage) | 5 (5=80-100% damage) | 5 (5=80-100% damage) | 5 (5=80-100% damage) | 5 (5=80-100% damage) |
| C#Cn1ncc(-c2ccc(C(F)(F)F)cc2S(C)(=O)=O)c(O)c1=O [Compound 2.010] | 5 (5=80-100% damage) | 5 (5=80-100% damage) | 5 (5=80-100% damage) | 5 (5=80-100% damage) | 5 (5=80-100% damage) | 5 (5=80-100% damage) | 5 (5=80-100% damage) | 5 (5=80-100% damage) | 5 (5=80-100% damage) | 5 (5=80-100% damage) | 5 (5=80-100% damage) | 5 (5=80-100% damage) |
| Cn1ncc(-c2ccc(C(F)(F)F)cc2S(=O)(=O)Cc2ccccc2)c(O)c1=O [Compound 2.047] | 1 (1=0-19% damage) | 1 (1=0-19% damage) | 5 (5=80-100% damage) | 4 (4=60-79% damage) | 2 (2=20-39% damage) | 1 (1=0-19% damage) | 3 (3=40-59% damage) | 3 (3=40-59% damage) | 5 (5=80-100% damage) | 5 (5=80-100% damage) | 5 (5=80-100% damage) | 4 (4=60-79% damage) |
| Cn1ncc(-c2ccc(C(F)(F)F)nc2OCc2cccc(Cl)c2)c(O)c1=O [Compound 4.009] | 1 (1=0-19% damage) | 1 (1=0-19% damage) | 1 (1=0-19% damage) | 1 (1=0-19% damage) | 3 (3=40-59% damage) | 1 (1=0-19% damage) | 1 (1=0-19% damage) | 1 (1=0-19% damage) | 1 (1=0-19% damage) | 5 (5=80-100% damage) | 4 (4=60-79% damage) | 1 (1=0-19% damage) |
